Legend:
TRPV1 protein = biological target: T1, TRPV1 protein (Mus musculus, UniProt Q704Y3); experiment: Calcium regulation ability at the cellular level, Fluo-8 AM staining, confocal microscopy; format: cell-based; conditions: 4T1 cells
T1 construct: endogenous in cells; host or cells: 4T1 cells
Description: The specific operations were as follows.
A high-glucose DMEM cell culture medium containing 10% fetal bovine serum and 5% double antibodies (the following media all contained 10% fetal bovine serum and 5% double antibodies) was prepared. Triple negative breast cancer 4T1 cells in logarithmic growth phase were seeded in a Confocal cell culture dish at a density of 1.0×10^4 cells/well, and incubated in a cell incubator (37° C., 5% CO2) for 12 hrs. […] The cells were incubated in an incubator for another 12 hrs, and the culture medium was changed after incubation. The irradiation group was irradiated with LED light (660 nm, 20 mW cm^−2) for 15 min (without treatment in the non-irradiation group). After irradiation, the culture medium was discarded. The cells were rinsed three times with PBS, and the rinsed cells were stained (10 min) with a fluorescent dye Fluo-8 AM (50.0 μmol L^−1, 1.0 mL) for intracellular calcium. After staining, the cells were rinsed with PBS, and observed by laser confocal microscopy.

[1] = reference value used for calculation; cited from earlier work

T1 sequence (Q704Y3 whole entry): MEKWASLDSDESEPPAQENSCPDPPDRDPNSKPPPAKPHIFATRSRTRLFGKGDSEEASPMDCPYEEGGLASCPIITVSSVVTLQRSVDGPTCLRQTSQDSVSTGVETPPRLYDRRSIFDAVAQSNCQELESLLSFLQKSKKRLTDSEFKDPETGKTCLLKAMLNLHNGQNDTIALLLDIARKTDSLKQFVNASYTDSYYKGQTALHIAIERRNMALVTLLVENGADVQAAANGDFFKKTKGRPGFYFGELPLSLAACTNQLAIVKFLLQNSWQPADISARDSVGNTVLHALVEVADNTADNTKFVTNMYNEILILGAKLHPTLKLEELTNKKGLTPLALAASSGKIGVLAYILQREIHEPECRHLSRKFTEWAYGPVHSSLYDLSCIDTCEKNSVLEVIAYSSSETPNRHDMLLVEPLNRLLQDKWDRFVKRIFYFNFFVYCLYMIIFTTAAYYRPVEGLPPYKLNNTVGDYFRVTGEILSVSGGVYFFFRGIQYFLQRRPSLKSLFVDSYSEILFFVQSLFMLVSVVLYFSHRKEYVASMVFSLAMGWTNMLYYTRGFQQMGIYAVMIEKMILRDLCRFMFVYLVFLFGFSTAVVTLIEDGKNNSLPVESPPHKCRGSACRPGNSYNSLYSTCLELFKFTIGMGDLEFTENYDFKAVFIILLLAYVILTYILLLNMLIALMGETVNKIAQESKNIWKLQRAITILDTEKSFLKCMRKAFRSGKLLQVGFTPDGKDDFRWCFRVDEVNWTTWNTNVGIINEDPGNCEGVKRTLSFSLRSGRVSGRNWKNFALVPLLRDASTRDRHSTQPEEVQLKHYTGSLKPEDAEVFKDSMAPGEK

Row | Compound | change of intracellular calcium fluorescence intensity after irradiation versus before irradiation (TRPV1 protein; LED 660 nm, 20 mW cm^−2, 15 min) | intracellular calcium fluorescence under non-irradiation and irradiation conditions (TRPV1 protein; compared with PBS and BDP groups) | singlet oxygen quantum yield of the reference [1]
1 | COc1cc(CNC(=O)CCCC/C=C/C(C)C)ccc1O [CAP, capsaicin] | does not change obviously | intense green fluorescence | –
2 | [Zn+2].c1ccc2c(c1)-c1nc-2nc2[n-]c(nc3nc([n-]c4nc(n1)-c1ccccc1-4)-c1ccccc1-3)c1ccccc21 [ZnPc, Zinc phthalocyanine] | – | – | 1

Source: patent publication US20230414758A1, “CAPSAICIN-DERIVED PHOTOSENSITIZER, AND PREPARATION METHOD AND USE THEREOF” (priority 2022, published 2023)
